Measurements reported in PMC4676015, “Variant fatty acid-like molecules Conjugation, novel approaches for extending the stability of therapeutic peptides” (Scientific Reports, 2015).

Legend:
[1] = cited from earlier work
GLP-1 receptor (GLP-1R) = target: T1, GLP-1 receptor (GLP-1R) (Rattus norvegicus, UniProt P32301); assay: GLP-1 receptor binding assay (cellular ELISA)
T1 construct: endogenous in cells; host or cells: rat INS-1 cells
T1 sequence (P32301 22-463): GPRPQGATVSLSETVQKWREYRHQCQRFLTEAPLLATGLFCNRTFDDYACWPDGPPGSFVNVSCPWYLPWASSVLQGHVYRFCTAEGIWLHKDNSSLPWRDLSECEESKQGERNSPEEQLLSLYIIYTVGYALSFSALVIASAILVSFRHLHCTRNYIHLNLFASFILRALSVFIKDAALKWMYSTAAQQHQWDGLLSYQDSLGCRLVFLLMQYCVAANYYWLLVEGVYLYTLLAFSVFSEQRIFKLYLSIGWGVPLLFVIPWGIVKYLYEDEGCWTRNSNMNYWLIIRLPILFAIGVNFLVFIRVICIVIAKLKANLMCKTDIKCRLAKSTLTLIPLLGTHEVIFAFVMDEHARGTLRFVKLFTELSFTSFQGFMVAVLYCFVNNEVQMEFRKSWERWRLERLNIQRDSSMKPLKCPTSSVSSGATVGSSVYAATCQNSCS
Summary of the method: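 Cells were fixed with 4% paraformaldehyde, quenched with 2% glycine (pH 7.5), then incubated with peptides for 2 h at 37 °C, washed and blocked with 5% BSA. Absorbance was read at 450 nm. Kd was fitted from peptide concentration versus absorbance.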

DPP IV enzyme = target: T2, DPP IV enzyme (Homo sapiens, UniProt P27487); assay: Stability against DPP IV proteolysis with or without HSA; type: in vitro ADME
T2 construct: purchased Sigma-Aldrich
T2 sequence (P27487 whole entry, species assumed): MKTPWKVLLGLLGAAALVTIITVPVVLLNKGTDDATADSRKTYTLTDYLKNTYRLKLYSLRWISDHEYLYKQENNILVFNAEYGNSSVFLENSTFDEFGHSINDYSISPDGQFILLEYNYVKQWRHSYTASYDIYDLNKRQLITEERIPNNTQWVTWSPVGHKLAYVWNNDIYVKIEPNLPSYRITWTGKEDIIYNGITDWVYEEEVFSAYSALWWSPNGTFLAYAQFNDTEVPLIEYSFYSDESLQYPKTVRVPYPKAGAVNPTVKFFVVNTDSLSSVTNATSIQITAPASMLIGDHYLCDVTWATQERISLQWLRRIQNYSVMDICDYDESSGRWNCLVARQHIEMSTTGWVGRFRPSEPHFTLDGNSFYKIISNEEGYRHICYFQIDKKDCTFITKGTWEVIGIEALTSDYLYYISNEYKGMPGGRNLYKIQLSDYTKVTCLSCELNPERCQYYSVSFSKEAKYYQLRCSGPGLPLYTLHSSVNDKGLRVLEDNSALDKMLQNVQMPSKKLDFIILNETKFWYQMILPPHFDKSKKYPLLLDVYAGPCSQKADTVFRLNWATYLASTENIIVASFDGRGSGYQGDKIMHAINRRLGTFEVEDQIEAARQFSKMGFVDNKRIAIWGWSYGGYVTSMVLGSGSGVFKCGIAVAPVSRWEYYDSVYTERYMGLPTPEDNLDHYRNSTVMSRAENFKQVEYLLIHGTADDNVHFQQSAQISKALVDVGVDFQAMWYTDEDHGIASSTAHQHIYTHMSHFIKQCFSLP

Wistar rats [2] = assay: Single-dose glucoregulatory assay (glucose tolerance test); type: in vivo; conditions: calculated from the single dose glucose tolerance test in rats
Experimental: In this assay, the derivatives were administered once, and the blood glucose levels were monitored over 120 h. It was presumed that the apparent half-lives of the derivatives could be obtained by this single-dose glucose tolerance test, which would be beneficial for the determination of the administration frequency in future long-term glucose tolerance tests. Each derivative (300 μg/kg body weight) was subcutaneously injected into fasting male Wistar rats (n = 7 per group) 30 min prior to glucose administration. GLP-1 and saline were injected into the control animals. Rats were given 2 g glucose/kg body weight via intraperitoneal injections. Blood was drawn from the tail vein, and glucose levels were measured using a glucometer 30 min after glucose administration. Chronic glucose injections (2 g/kg body weight) were administered 30 min prior to each blood glucose measurement time point during the 120-h experimental period.

Wistar rats [3] = assay: Toxicity study of compound 24 in Wistar rats (blood biochemistry, haematology); type: in vivo; conditions: Wistar rats and Kunming mice, GLP guideline of China
Experimental: Wistar rats (n = 8) and Kunming mice (n = 30) were employed in this study to investigate the acute toxicity of compound 24. Compound 24 was intraperitoneally administered with three doses of 5, 15 and 50 mg/kg/2 days for 30 days. Controls received a similar volume of sodium dihydrogen phosphate. At the end of the experimental period, overnight fasted animals were sacrificed by cervical decapitation under light ether anesthesia and blood was collected, serum was separated by centrifuging at 3,000 rpm for 10 min. The serum was used for the assay of the biochemical parameters using Chemistry Analyzer […] (Vital, Netherlands).

[4] = Blood retention time measurement; conditions: 500 μg/kg s.c., Wistar rats, n = 5; 0.5-96 h; GLP-1 (7–37) ELISA

CC[C@H](C)[C@H](NC(=O)[C@H](Cc1ccccc1)NC(=O)[C@H](CCC(=O)O)NC(=O)[C@H](CCCCN)NC(=O)[C@H](C)NC(=O)[C@H](C)NC(=O)[C@H](CCC(N)=O)NC(=O)CNC(=O)[C@H](CCC(=O)O)NC(=O)[C@H](CC(C)C)NC(=O)[C@H](Cc1ccc(O)cc1)NC(=O)[C@H](CO)NC(=O)[C@H](CO)NC(=O)[C@@H](NC(=O)[C@H](CC(=O)O)NC(=O)[C@H](CO)NC(=O)[C@@H](NC(=O)[C@H](Cc1ccccc1)NC(=O)[C@@H](NC(=O)CNC(=O)[C@H](CCC(=O)O)NC(=O)[C@H](C)NC(=O)[C@@H](N)Cc1c[nH]cn1)[C@@H](C)O)[C@@H](C)O)C(C)C)C(=O)N[C@@H](C)C(=O)N[C@@H](Cc1c[nH]c2ccccc12)C(=O)N[C@@H](CC(C)C)C(=O)N[C@H](C(=O)N[C@@H](CCCCN)C(=O)NCC(=O)N[C@@H](CCCN=C(N)N)C(=O)NCC(=O)O)C(C)C [GLP-1, glucagon-like peptide-1]
stability (half-life) of native GLP-1 ([1]; degradation by DPP-IV, reference not given): 3 to 5 min
renal clearance ([1]; in vivo): less than 10 min

CC[C@H](C)[C@H](NC(=O)[C@H](Cc1ccccc1)NC(=O)[C@H](CCC(=O)NCCCCCCCCCCCC(=O)O)NC(=O)[C@H](CCCCN)NC(=O)[C@H](C)NC(=O)[C@H](C)NC(=O)[C@H](CCC(N)=O)NC(=O)CNC(=O)[C@H](CCC(=O)O)NC(=O)[C@H](CC(C)C)NC(=O)[C@H](Cc1ccc(O)cc1)NC(=O)[C@H](CO)NC(=O)[C@H](CO)NC(=O)[C@@H](NC(=O)[C@H](CC(=O)O)NC(=O)[C@H](CO)NC(=O)[C@@H](NC(=O)[C@H](Cc1ccccc1)NC(=O)[C@@H](NC(=O)CNC(=O)[C@H](CCC(=O)O)NC(=O)[C@H](C)NC(=O)[C@@H](N)Cc1c[nH]cn1)[C@@H](C)O)[C@@H](C)O)C(C)C)C(=O)N[C@@H](C)C(=O)N[C@@H](Cc1c[nH]c2ccccc12)C(=O)N[C@@H](CC(C)C)C(=O)N[C@H](C(=O)N[C@@H](CCCCN)C(=O)NCC(=O)N[C@@H](CCCNC(=N)N)C(=O)NCC(=O)O)C(C)C [compound 24]
Kd (GLP-1 receptor (GLP-1R)): 17.6 ± 1.76 nM
detectability of full-length peptide at 24 h (DPP IV enzyme; DPP IV 0.1 mg/ml, pH 7.0, in the presence of human serum albumin (2%), peptide 1 mg/ml, 37 °C, GLP-1 (7–37) ELISA): still detectable at 24 h
AUC0–24 h, amount of undigested GLP-1 fragments compared with wild-type GLP-1 (DPP IV enzyme; DPP IV proteolysis solution, 37 °C, 0-24 h, GLP-1 (7–37) ELISA, P < 0.01): approximately 3.5 fold
AUCGLP-1(7–37) in proteolysis solution compared to native GLP-1 (DPP IV enzyme; DPP IV proteolysis solution, 37 °C, GLP-1 (7–37) ELISA, P < 0.01): significantly increased
degradation rate against DPP IV compared with compounds 6 and 21, respectively (DPP IV enzyme; DPP IV proteolysis, same carbon chain length without free carboxyl group as comparator): significantly lower degradation rates
observed half-life (Wistar rats [2]): 9.6 h
acute toxicity and blood biochemistry tests (Wistar rats [3]): no toxicity was observed
increase of circulating amount (AUC GLP-1 (7-37)) compared with native GLP-1 [4]: 2.7 fold
